From article PMC10447463, “Data-mining unveils structure–property–activity correlation of viral infectivity enhancing self-assembling peptides” (Nature Communications, 2023)

Key:
[1] = system: HIV-1 infection of TZM-bl cells; assay: HIV-1 infectivity enhancement assay, β-galactosidase luminescence; type: cell-based
[2] = Turbidity, derived count rate of scattered light; type: physicochemical; conditions: for Count Rate / kcps: derived count rate of scattered light at 633 nm, 173°, from zeta-potential measurement, 0.1 mg/mL in 1 mM KCl after 1 d at 1 mg/mL in PBS, turbidity / microscopic aggregation, mean of triplicate
How it was run: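 Samples: 1 mg/mL in PBS pH 7.4 (from DMSO), 1 d at RT, then diluted in 1 mM KCl immediately before measurement. Triplicates, two independent runs averaged.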

[3] = log10 of infection relative to EF-C, Figure 7B
[4] = n-fold infection vs virus only, relative to that of EF-C, 1.3 µM peptide
[5] = HIV-1 infection relative to EF-C; Fig 23 plot, panels A and B; mean of 3 values
[6] = HIV-1 infection relative to EF-C; Fig 23 plot, single data point, replicate 1
[7] = HIV-1 infection relative to EF-C; Fig 23 plot, single data point, replicate 2
[8] = HIV-1 infection relative to EF-C; Fig 23 plot, single data point, replicate 3
[9] = log10 of infection relative to EF-C, Figure 6C
[10] = log10 of derived count rate of scattered light, Figure 6C
[11] = logarithm of count rate in kcps
[12] = Feb2021; figures match the 1.3 µM column
[13] = Feb2021; infectivity relative to virus only
[14] = Feb2021; log10 of infectivity relative to EF-C
[15] = Feb2021; n-fold infectivity relative to EF-C
[16] = infectivity class (low / medium / high) of each library peptide; main list in c1-c6, same classes repeated in sub-lists of sequences containing the hydrophobicity/charge patterns P+,H0,P+,H0,P0,H0,P0; P+,H0,P0,H0,P0,H0,P0; P+,H0,P0,H0
[17] = log10 of HIV-1 infection of TZM-bl cells relative to EF-C; Fig S15 source data; asymmetric std dev errors
[18] = infectivity class (low / medium / high) of the peptide in the sequence-pattern analysis, Fig. S22-A4; class limits not given

## IIIK [reference compound]
[1]; [3]
  Log10 Infection Rel EF-C: -1.29
[1]; [4]
  Inf. rel. EF-C: 0.05
[2]
  Count Rate / kcps: 26 kcps

## IIIQGK [reference compound]
[1]; [3]
  Log10 Infection Rel EF-C: -1.21
[1]; [4]
  Inf. rel. EF-C: 0.06
[2]
  Count Rate / kcps: 10 kcps

## IKFLSVN [reference compound]
[1]; fibril-forming peptides with positive zeta-potential, low count rate
  infectivity enhancement, in words: do not enhance infectivity
[1]; [3]
  Log10 Infection Rel EF-C: -1.16
[1]; [4]
  Inf. rel. EF-C: 0.07
[2]
  Count Rate / kcps: 137 kcps

## KAKLTCT
[1]; [5]
  Inf. rel. EF-C: 0.0665
[1]; [6]
  Inf. rel. EF-C: 0.09602
[1]; [7]
  Inf. rel. EF-C: 0.05821
[1]; [8]
  Inf. rel. EF-C: 0.04527
[1]; [9]
  Log10 Infection Rel EF-C: -1.177
[1]; [4]
  Inf. rel. EF-C: 0.07
[2]
  Count Rate / kcps: 16.8 kcps
[2]; [10]
  Log10 Count Rate: 1.225
[2]; [11]
  Log10 Count Rate: 1.225

## KAKQAANMWQ [JG6]
[1]; [12]
  Absolute Infectivity / RLU /s (Feb2021): 343.3 RLU /s
[1]; [13]
  n-fold to virus (Feb2021): 1.2875
[1]; [14]
  Log10 of Rel to EFC (Feb2021): -1.514
[1]; [15]
  Rel-to EFC (Feb-2021): 0.03064
[1]; [16]
  infectivity: low
[1]; [17]
  Log10 Inf. rel. to EF-C: -1.514
[2]; category 1 / 0, no key given
  Zeta Count Rate Category: 1
[2]; derived count rate of scattered light
  Zeta Count Rate / kcps: 690.5 kcps

## KAQCTLP
[1]; [5]
  Inf. rel. EF-C: 0.07031
[1]; [6]
  Inf. rel. EF-C: 0.07607
[1]; [7]
  Inf. rel. EF-C: 0.09243
[1]; [8]
  Inf. rel. EF-C: 0.04244
[1]; [9]
  Log10 Infection Rel EF-C: -1.153
[1]; [4]
  Inf. rel. EF-C: 0.07
[2]
  Count Rate / kcps: 97.27 kcps
[2]; [10]
  Log10 Count Rate: 1.988
[2]; [11]
  Log10 Count Rate: 1.988

## KFKFQFF [TG6]
[1]; [12]
  Absolute Infectivity / RLU /s (Feb2021): 2850 RLU /s
[1]; [13]
  n-fold to virus (Feb2021): 5.12
[1]; [14]
  Log10 of Rel to EFC (Feb2021): -0.9142
[1]; [15]
  Rel-to EFC (Feb-2021): 0.1218
[1]; Feb2021 run; infectivity n-fold relative to virus alone
  n-fold to virus (Feb2021): 5.12
[1]; Feb2021 run; log10 of infectivity relative to EF-C
  Log10 of Rel to EFC (Feb2021): -0.9142
[1]; Feb2021 run; n-fold infectivity relative to EF-C
  Rel-to EFC (Feb-2021): 0.1218
[1]; [16]
  infectivity: medium
[1]; infectivity enhancement relative to EF-C (=1); Feb2021 run
  Rel-to EFC (Feb-2021): 0.1218
[1]; infectivity n-fold relative to virus only; Feb2021 run
  n-fold to virus (Feb2021): 5.12
[1]; [17]
  Log10 Inf. rel. to EF-C: -0.9142
[1]; log10 of infectivity relative to EF-C; Feb2021 run
  Log10 of Rel to EFC (Feb2021): -0.9142

## KIKIQIAMWQ [JR4]
[1]; [16]
  infectivity: medium
[1]; [17]
  Log10 Inf. rel. to EF-C: -0.4109

## KIKIQIMQWN [VH16]
[1]; [18]
  infectivity: high
[1]; [17]
  Log10 Inf. rel. to EF-C: -0.1454

## KIKIQIMWNQ [VH15]
[1]; [16]
  infectivity: medium
[1]; [17]
  Log10 Inf. rel. to EF-C: -0.2495

## KIKIQINAWQ [JR3-II]
[1]; [16]
  infectivity: medium
[1]; [17]
  Log10 Inf. rel. to EF-C: -0.2703

## KIKIQINMAQ [JR2]
[1]; [16]
  infectivity: medium
[1]; [17]
  Log10 Inf. rel. to EF-C: -0.6722

## KIKIQINMWA [JR1]
[1]; [16]
  infectivity: medium
[1]; [17]
  Log10 Inf. rel. to EF-C: -0.1642

## KIKIQIRGD [MG6]
[1]; [16]
  infectivity: low
[1]; [18]
  infectivity: low
[1]; [17]
  Log10 Inf. rel. to EF-C: -1.678

## NMWQKAKAQA [JG10]
[1]; [16]
  infectivity: low
[1]; [17]
  Log10 Inf. rel. to EF-C: -1.376

## NMWQKFKFQF [JG11]
[1]; [16]
  infectivity: medium
[1]; [17]
  Log10 Inf. rel. to EF-C: -0.5672

## NMWQKIKIQI [JG9]
[1]; [16]
  infectivity: medium
[1]; [17]
  Log10 Inf. rel. to EF-C: -0.6877

## NMWQKIKQII [JG8]
[1]; [16]
  infectivity: low
[1]; [17]
  Log10 Inf. rel. to EF-C: -1.5971
